US6043072A, “Nucleic acids encoding Taxus geranylgeranyl diphosphate synthase, and methods of use” (Washington State University Research Foundation, priority 1998, dated 2000)

Assays:
[1] = molecular target: T. canadensis GGPP synthase (Taxus canadensis, UniProt Q9ZPM3); assay: Kinetic evaluation of recombinant GGPP synthase (standard prenyltransferase assay, double reciprocal plots); assay type: biochemical; conditions: for relative velocities of the reaction with allylic co-substrates: co-substrate at 12.5 and 25 mM, IPP and Mg^2+ at saturation
Sequence of T. canadensis GGPP synthase (Q9ZPM3 99-393): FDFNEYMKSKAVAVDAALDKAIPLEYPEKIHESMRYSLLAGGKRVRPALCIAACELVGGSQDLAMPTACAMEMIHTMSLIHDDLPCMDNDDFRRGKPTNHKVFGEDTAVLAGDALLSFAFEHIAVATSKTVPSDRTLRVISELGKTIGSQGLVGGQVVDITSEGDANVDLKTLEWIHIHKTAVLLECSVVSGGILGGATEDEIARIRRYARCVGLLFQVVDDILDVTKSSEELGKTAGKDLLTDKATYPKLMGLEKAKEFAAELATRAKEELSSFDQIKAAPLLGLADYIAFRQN
Protocol: The reaction was quenched by the addition of 300 mil of methanol:conc. HCl (4:1, v/v), and the allylic diphosphate products were solvolyzed (50, 51) upon further incubation at 42° C. for 20 min. The resulting solvolysis products were extracted twice with 1 ml pentane, and were either analyzed by liquid scintillation counting (in toluene:ethanol (7:3, v/v) containing 0.4% Omnifluor (DuPont NEN); ^14 C counting efficiency=96.0%) or concentrated on ice under a gentle stream of Ar to […] for further analysis.

GGPP synthase proteins = molecular target: T1, GGPP synthase proteins (Taxus canadensis, UniProt Q9ZPM3); assay: Physical properties of GGPP synthase proteins isolated from various Taxus species (Table 1); assay type: biochemical, T. canadensis; T. brevifolia; T. cuspidata and T. baccata
T1 construct: values reportedly equal those of recombinant truncated (mature) T. canadensis enzyme
T1 sequence (Q9ZPM3 99-393): as above

taxadiene synthase mRNA = assay: RNA-blot analysis over the time course of methyl jasmonate induction; assay type: cell-based, T. canadensis; conditions: at 8 h; elevated through at least 48 h
Protocol: (§1) Total RNA was isolated from T. canadensis suspension cell cultures using the method set forth in Example 1. Equivalent amounts of RNA […] from cells that had been harvested 8, 12, 24, 48, and 168 h after methyl jasmonate induction, as well as RNA isolated from non-induced cells (0 h), were separated by electrophoresis on a formaldehyde-denaturing agarose gel, along with RNA size standards (Promega Corporation, Madison, Wis.). The separated RNA was blotted to nylon membrane by capillary action and then fixed by UV irradiation. Radiolabeled probes corresponding to the full length GGPP synthase coding region (nucleotide 308 to nucleotide 1489 of the nucleic acid sequence set forth in SEQ ID NO:1), and to an internal fragment (nucleotides 173 to 1875 inclusive) of the taxadiene synthase cDNA reported in Wildung, M. R. and Croteau, R. (1996) J. Biol. […] The blot was incubated sequentially with each probe for 16 h at 65° C., then washed twice with 2×SSC at room temperature, and then thrice with 0.5×SSC at 65° C. The blot was imaged using a Bio-Rad GS-525 Molecular Imager® System and Molecular Analyst version 2.1 software.

GGPP synthase mRNA = assay: as above; assay type: cell-based, T. canadensis; conditions: at 8 h; elevated through at least 48 h
Protocol: as §1

[2] = system: T. canadensis suspension cell cultures; assay: Methyl jasmonate induction of suspension cell cultures: paclitaxel in medium and cell mass; assay type: cell-based
Protocol: Suspension cell cultures were treated with methyl jasmonate 7 d after subculture and harvested at 8, 12, 24, 48 or 168 h after elicitation, or immediately before induction. During this 7 d induction period, the wet cell mass increased by about 10% and the paclitaxel concentration in the medium (where the majority of the taxoids accumulate) rose from 2.5 mg/l to 32 mg/I, with the greatest increase occurring after 48 h. The concentration of paclitaxel was measured by calibrated HPLC with UV detection as described in Hezari et al, Arch. Biochem. Biophys., 337:185-190 (1997).

taxadiene synthase = assay: Enzyme activity in cell culture extracts after methyl jasmonate induction; assay type: cell-based, T. canadensis; conditions: crude extracts, 0-168 h after induction (FIG. 5)
Protocol: (§2) The same T. canadensis cell cultures used for RNA blot analysis were also used to determine the relative activities of GGPP synthase and taxadiene synthase over the course of methyl jasmonate induction of paclitaxel biosynthesis. […] Particulate material and cellular debris were removed from the homogenates by centrifugation, first at 3000 g, then at 31,000 g, for 20 min at 4° C. Protein concentration in the supernatant used as the enzyme source was estimated by the method of Bradford (Bradford, M. M. (1976) Anal. Biochem. 72:24814 254). GGPP synthase activity was determined by the standard prenyltransferase assay described in Example 4, except that 100 μl of crude extract (150 μg protein) isolated from T. canadensis cell cultures was used as the enzyme source and the reactions were incubated for 10 min. Taxadiene synthase activity was determined by measuring the Mg^2+ -dependent conversion of [1-^3 H1 ]geranylgeranyl diphosphate (15 μM) to the olefin product as described in Hezari, M., Lewis, N. G. and Croteau, R. (1995) Arch. Biochem. Biophys., 322:437-444; […]., Gibson, D. M. and Croteau, R. (1997) Arch. Biochem. Biophys., 337:185-190. In this assay, 500 μl of the crude extract (750 μg protein) was incubated at 3 1° C. for 1 h.

GGPP synthase = assay: as above; assay type: cell-based, T. canadensis; conditions: crude extracts, 0-168 h after induction (FIG. 5)
Protocol: as §2

With `[Mg+2]` [Mg^2+] the Km ([1]; double reciprocal plotting, remaining reactants at saturation) was 35 µM and the Km (GGPP synthase proteins) was 35 ± 3 µM.

For `CC/C=C\CC1C(=O)CCC1CC(=O)OC` (centres unmarked) [methyl jasmonate], the “steady state mRNA level of taxadiene synthase” value (taxadiene synthase mRNA) was “rapid increase”, the “steady state mRNA level of GGPP synthase” value (GGPP synthase mRNA) was “rapid increase” and the “paclitaxel concentration in the medium” value ([2]; after 7 d induction period, rose from 2.5 mg/l) was 32 mg/I. For the same compound, the “increase of wet cell mass” value ([2]; during 7 d induction period) was “about 10%”, the “taxadiene synthase activity level” value (taxadiene synthase) was “rose steadily to 48 h” and the “GGPP synthase activity level” value (GGPP synthase) was “rose steadily to 48 h”.

`[Mn+2]` [Mn^2+] was tested, and the “support of catalysis as divalent metal ion cofactor” value [1] was “did not support catalysis”.

For `CC(C)=CCC/C(C)=C/COP(=O)(O)OP(=O)(O)O` [GPP, geranyl diphosphate], the “relative velocities of the reaction with allylic co-substrates” value [1] was 100%.

In the case of `CC(C)=CCC/C(C)=C/CC/C(C)=C/CO[P@@](=O)(O)OP(=O)(O)O` (stereo in doubt) [FPP, farnesyl diphosphate], the “relative velocities of the reaction with allylic co-substrates” value [1] is reported as 66%.
